From US20260027124A1, “SUBSTITUTED IMIDAZO[1,2-A]PYRIDINE COMPOUNDS AND THE USE THEREOF IN THE TREATMENT AND PREVENTION OF FIBROSIS” (MOEXA PHARMACEUTICALS LIMITED, priority 2022, published 2026)
pIC50: −log10 of the molar value.

Tested on: TGF-β
Experiment: TGFβ/SMAD Signaling Pathway SBE Reporter-HEK293 luciferase assay (inhibition of TGF-β)
Assay type: cell-based
Settings: SBE reporter-HEK293 cells, human TGFβ1 20 ng/ml; for pIC50: 4 h compound pre-incubation, ~18 hours, luciferase luminescence; for inhibitory activity against TGF-β: statement in words
Procedure: Transforming TGF-β regulates the proliferation and differentiation of fibroblasts, which are the primary constituent cells of fibrous tissues. As such, representative compounds of the present disclosure were tested for their ability to inhibit TGF-β.
• 1. TGFβ/SMAD Signaling Pathway SBE Reporter—HEK293 Cell Line BPS Bioscience Catalog #: 60653 • 2. Human TGFβ1 (BPS Bioscience #90900-1) • 3. SIS3 (Sigma #S0447): inhibitor of TGFβ pathway. Prepare stock solution in DMSO. • 4. Growth medium: MEM medium (Invitrogen #11095-080)+10% FBS (ATCC #30-2020)+1% non-essential amino acids (Lonza #13-114E)+1 mM Na pyruvate (Lonza #13-115E)+1% Penicillin/Streptomycin (ATCC #30-2300)+400 μg/ml of Geneticin (Invitrogen #11811-031). • 5. Assay medium: MEM medium+0.5% FBS+1% non-essential amino acids+1 mM Na pyruvate+1% Pen/Strep • 6. 96-well tissue culture-treated white clear-bottom assay plate (Corning #3610) • 7. ONE-Step™ Luciferase Assay System (BPS, Cat. #60690)
SBE reporter-HEK293 cells were harvested from culture in growth medium and seeded at a density of ˜10,000 cells per well into a white clear-bottom 96-well microplate in 100 μl of assay medium. The plate containing cells were incubated at 37° C. in a CO2 incubator. 24 hours after seeding, cells were washed with 100 μL of assay buffer and treated with three fold serial dilution of compounds in 50 μl assay medium. Cells were incubated at 37° C. in a CO2 incubator for 4 hours. For control wells 50 μl assay medium was added with no inhibitor. Each treatment was done in triplicate. After 4 hours of incubation, 5 μl of human TGFβ1 in assay medium was added to cells (final TGFβ1 concentration=20 ng/ml). 5 μl of assay medium was added to the unstimulated control wells (for determining the basal activity). The plate with cells was incubated at 37° C. in a CO2 incubator overnight (˜18 hours). After 18 hours of incubation Luciferase assay was performed using ONE-Step™ Luciferase Assay System according to the protocol provided: 50 μl of ONE-Step™ Luciferase reagent was added per well and shook at room temperature for ˜10 minutes. Luminescence was measured using a luminometer.

Compound: COc1cc2c(cc1OC)CN(C(=O)/C=C/c1c(-c3ccc(Cl)cc3)nc3ccccn13)CC2 [Compound 6]
- pIC50: 5.26
- inhibitory activity against TGF-β: showed inhibitory activity

Compound: O=C(/C=C/c1c(-c2ccccc2)nc2ccccn12)N1CCOCC1 [Compound 8]
- pIC50: 5.43
- inhibitory activity against TGF-β: showed inhibitory activity

Compound: COc1cc2c(cc1OC)CN(C(=O)/C=C/c1c(-c3ccccc3)nc3ccccn13)C2 [Compound 9]
- pIC50: 5.21
- inhibitory activity against TGF-β: showed inhibitory activity

Compound: COc1cc2c(cc1OC)CN(C(=O)/C=C/c1c(-c3ccccc3)nc3ccc(F)cn13)C2 [Compound 10]
- pIC50: 5.36
- inhibitory activity against TGF-β: showed inhibitory activity

Compound: COc1cc2c(cc1OC)CN(C(=O)/C=C/c1c(-c3ccc(F)cc3)nc3ccccn13)C2 [Compound 11]
- pIC50: 5.45
- inhibitory activity against TGF-β: showed inhibitory activity

Compound: COc1cc2c(cc1OC)CN(C(=O)/C=C/c1c(-c3ccccc3)n(C)c3ncccc13)CC2 [SIS3, reference compound]
- pIC50: 5.58
